Test systems include COLO 205 colon; IGROV1 ovarian; MOLT-4 leukemia; NCI-H522 lung; RXF 393 renal; SF-295 CNS; SK-MEL-28 melanoma; SNB-75 CNS; UACC-257 melanoma; UACC-62 melanoma.
Holding throughout (assay): growth of human tumour cells (NCI), 48 h

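Where inhibition never reached the appropriate level, the endpoint shown equals the highest concentration tested. Otherwise, values were interpolated linearly from a five-concentration, 48-hour dose response in 96-well plates. GI50: concentration for 50% inhibition of growth. TGI denotes the concentration required for complete inhibition of growth.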

Take `O=C(N/N=C/C=C/c1ccc([N+](=O)[O-])o1)c1cc2ccccc2cc1O`: the GI50 in the experiment with COLO 205 colon was 1.84 µM; with IGROV1 ovarian, 0.981 µM; in the experiment with MOLT-4 leukemia, 1.18 µM; with NCI-H522 lung, 0.486 µM; in the experiment on RXF 393 renal it was 0.412 µM; in the experiment with SF-295 CNS, 3.37 µM. The GI50 in the experiment with SK-MEL-28 melanoma is 0.697 µM; in the experiment with SNB-75 CNS, 1.97 µM; in the experiment with UACC-257 melanoma, 1.38 µM; in the experiment with UACC-62 melanoma, 1.03 µM. Moreover, the TGI was determined as 3.35 µM with COLO 205 colon; 3.73 µM in the experiment on IGROV1 ovarian; 7.3 µM in the experiment on MOLT-4 leukemia; 2.72 µM in the experiment on NCI-H522 lung; 1.77 µM in the experiment with RXF 393 renal; 21.2 µM in the experiment on SF-295 CNS. For the same molecule, the TGI in the experiment with SK-MEL-28 melanoma stood at 2.4 µM; in the experiment on SNB-75 CNS, 6.12 µM; in the experiment with UACC-257 melanoma, 4.21 µM; with UACC-62 melanoma it was 2.77 µM.
Turning to `Cc1ccc(S(=O)(=O)n2c3ccc(Br)cc3c3nc4ccccc4nc32)cc1`, the TGI in the experiment with COLO 205 colon is over 100 µM; in the experiment with IGROV1 ovarian, 57.8 µM; in the experiment on MOLT-4 leukemia it was over 100 µM; in the experiment with NCI-H522 lung it was over 100 µM; with RXF 393 renal, over 100 µM; with SF-295 CNS it was over 100 µM. The TGI in the experiment on SK-MEL-28 melanoma, with SNB-75 CNS, in the experiment on UACC-257 melanoma and in the experiment with UACC-62 melanoma was over 100 µM in each case.
For the molecule `CC1CCCC2(CC[N+](C)(CCC[N+](C)(C)C)CC2)C1` (stereo not given), the TGI with COLO 205 colon, in the experiment on IGROV1 ovarian, with MOLT-4 leukemia, with NCI-H522 lung, in the experiment with RXF 393 renal and in the experiment on SF-295 CNS was over 100 µM throughout. Also, the TGI with SK-MEL-28 melanoma, with SNB-75 CNS, in the experiment with UACC-257 melanoma and with UACC-62 melanoma was over 100 µM each time.
With `COc1ccc(CC(N)c2ccc(OC)cc2)cc1` (stereo not given), the TGI is 36.9 µM in the experiment on COLO 205 colon; over 100 µM in the experiment on IGROV1 ovarian; over 100 µM in the experiment on MOLT-4 leukemia; over 100 µM in the experiment with NCI-H522 lung; over 100 µM in the experiment with RXF 393 renal; over 100 µM with SF-295 CNS. Further, the TGI in the experiment on SK-MEL-28 melanoma, with SNB-75 CNS, in the experiment with UACC-257 melanoma and in the experiment on UACC-62 melanoma was over 100 µM in each case.
For `COc1cccc(CCN2CCN(CCCc3ccccc3)CC2)c1`, the TGI in the experiment on COLO 205 colon was 45.2 µM; in the experiment with IGROV1 ovarian it was over 100 µM; in the experiment with MOLT-4 leukemia, over 100 µM; in the experiment on NCI-H522 lung, 67.9 µM; with RXF 393 renal, over 100 µM; in the experiment on SF-295 CNS, over 100 µM. In addition, the TGI with SK-MEL-28 melanoma, in the experiment with SNB-75 CNS, with UACC-257 melanoma and in the experiment with UACC-62 melanoma was over 100 µM in each case.
Take `CCOP(=O)(/C=C\n1cc(C)c(=O)[nH]c1=O)OCC`: the TGI with COLO 205 colon, in the experiment on IGROV1 ovarian, with MOLT-4 leukemia, with NCI-H522 lung, in the experiment on RXF 393 renal and in the experiment with SF-295 CNS was over 100 µM each time. Moreover, the TGI with SK-MEL-28 melanoma, in the experiment with SNB-75 CNS, with UACC-257 melanoma and in the experiment on UACC-62 melanoma was over 100 µM throughout.
In the case of `CN(C)c1ccc(/C(F)=C(F)/C(F)=C(F)/C(F)=C(\F)c2ccc(Br)cc2)cc1`, the TGI was 63.2 µM in the experiment with COLO 205 colon; over 100 µM in the experiment with IGROV1 ovarian; over 79.6 µM with MOLT-4 leukemia; 27.1 µM with NCI-H522 lung; 38.7 µM in the experiment on RXF 393 renal; over 52.1 µM in the experiment on SF-295 CNS. The TGI in the experiment with SK-MEL-28 melanoma was over 100 µM; with SNB-75 CNS, 92.9 µM; in the experiment on UACC-257 melanoma it was over 100 µM; in the experiment with UACC-62 melanoma, over 100 µM.
On to `NC(=O)NNc1nc(-c2ccccc2)cs1`, for which the TGI with COLO 205 colon, with IGROV1 ovarian, in the experiment on MOLT-4 leukemia, in the experiment on NCI-H522 lung, with RXF 393 renal and with SF-295 CNS was over 100 µM in each case. Moreover, the TGI in the experiment on SK-MEL-28 melanoma, with SNB-75 CNS, in the experiment with UACC-257 melanoma and with UACC-62 melanoma was over 100 µM each time.
`COc1cc2ccc(=O)oc2cc1O`: the TGI with COLO 205 colon was over 625 µM; in the experiment with IGROV1 ovarian, 423 µM; in the experiment on MOLT-4 leukemia, 223 µM; with NCI-H522 lung, 618 µM; in the experiment on RXF 393 renal, over 569 µM; in the experiment on SF-295 CNS, 79.7 µM. The TGI in the experiment with SK-MEL-28 melanoma was over 625 µM; in the experiment on SNB-75 CNS it was 175 µM; with UACC-257 melanoma it was 270 µM; in the experiment with UACC-62 melanoma it was 161 µM.
`CCCC(=O)NC(Nc1ccc(S(=O)(=O)Nc2cc(C)on2)cc1)(C(=O)OCC)C(F)(F)F` (stereo not given): the TGI in the experiment on COLO 205 colon, with IGROV1 ovarian, with MOLT-4 leukemia, with NCI-H522 lung, with RXF 393 renal and in the experiment with SF-295 CNS was over 100 µM each time. The TGI in the experiment on SK-MEL-28 melanoma, with SNB-75 CNS, in the experiment on UACC-257 melanoma and with UACC-62 melanoma was over 100 µM in each case.
On to `CC(=O)Oc1cc2c(cc1OC(C)=O)OCC(c1ccc(C)cc1)C2` (stereo not given), for which the TGI in the experiment with COLO 205 colon was 41.8 µM; with IGROV1 ovarian, 42.9 µM; in the experiment on MOLT-4 leukemia, 54.6 µM; in the experiment with NCI-H522 lung, 6.86 µM; with RXF 393 renal, 34.6 µM; in the experiment with SF-295 CNS it was 76.3 µM. Moreover, the TGI with SK-MEL-28 melanoma was 39.3 µM; in the experiment on SNB-75 CNS, 32.3 µM; in the experiment on UACC-257 melanoma, 40.3 µM; in the experiment on UACC-62 melanoma, 21.3 µM.
Turning to `C=C[C@@H](C)[C@H](NS(=O)(=O)c1ccc(C)cc1)C(=O)OCC`, the TGI was over 100 µM in the experiment with COLO 205 colon; 77.3 µM in the experiment on IGROV1 ovarian; over 100 µM in the experiment on MOLT-4 leukemia; 57.5 µM in the experiment with NCI-H522 lung; over 100 µM in the experiment on RXF 393 renal; 63.4 µM in the experiment with SF-295 CNS. The TGI was over 100 µM in the experiment with SK-MEL-28 melanoma, 60.7 µM with SNB-75 CNS, 71.5 µM with UACC-257 melanoma and over 100 µM with UACC-62 melanoma.

The record behind these values is PubChem BioAssay (NCI).
